Test results reported in patent publication US20220008298A1, “OLEOGELS IN UV ABSORBER COMPOSITIONS” (BASF SE, priority 2011, published 2022).

Key:
[1] = Log P octanol/water of the oil; type: physicochemical
Description: (§1) The smaller the interfacial tension of the oil towards water, the more polar it is. This is in line with the values of Log Poctanol/water.

[2] = interfacial tension of the oil to water; type: physicochemical
Description: as §1

| SMILES | Log Poctanol/water [1] | Interf. tension to water, γ [2] |
| --- | --- | --- |
| CCCCOC(=O)CCCCC(=O)OCCCC [Dibutyl Adipate] | 3.9 | 14.3 mN/m |
| CCCCC(CC)COC(=O)OCC(CC)CCCC (stereo not shown) [Diethylhexyl Carbonate] | 6.8 | 29.1 mN/m |
